In one assay the test system is Nitrosomonas europaea. The assay is described as follows: Inhibition of nitrite generation by N. europaea cell suspension (Griess reagent, absorbance 548 nm). The format is cell-based. The settings on record: thiram 4 μM, relative to zero inhibitor control, read-out: % control (percent control of nitrification inhibition), observed. As for the experimental part: 1.5 L of cell culture suspension containing Nitrosomonas europaea (N. europaea) bacteria (ATCC #19718) was resuspended into a phosphate buffer (0.1M NaPB, 2 mM Mg SO4, pH of 7.5). The amount of N. europaea protein was quantified using a Biuret assay. A sample of the cell culture suspension containing about 0.3 mg/mL, 0.25 mg/mL, or 0.5 mg/mL of N. europaea protein was incubated with 50 μL of (NH4)2SO4 in a total reaction volume of 5 mL. The test measured inhibition for treatment rates of 4 μM thiram, 100 μM nitrapyrin, 100 μM of formulation 2 (form.2), formulation 3 (form.3), formulation 4 (form.4) and 100 μM of formulation 2 (form.2) plus 4 μM thiram, 100 μM of formulation 3 (form.3) plus 4 μM thiram and 100 μM of formulation 4 (form.4) plus 4 μM thiram; an untreated N. europaea assay served as the control. At time points 0, 30, and 60 minutes post addition of (NH4)2SO4, an aliquot of 500 μL was removed from the reaction mixture and was incubated for 30 minutes with 500 μL of Griess Reagent in the dark followed by measuring the absorbance at 548 nm for the presence or absence of nitrite. The percent of nitrification inhibition was calculated based on the relative percentage of nitrite measurement against the zero inhibitor control measurement (see FIGS. 2-4 showing the percent control of nitrification inhibition). […]
A general note: Nitrite, measured by Griess reagent, commonly stands in for NO production.

A further assay has as its system N. europaea. Briefly: Oxygen (O2) uptake of N. europaea cell suspension. The format is cell-based, Nitrosomonas europaea. The settings on record: FIG. 12, cells at 0.5 mg/mL total protein, thiram 4 μM, nitrapyrin and formulations 100 μM. The protocol:
1.5 L of cell culture suspension containing N. europaea bacteria (ATCC #19718) was resuspended into a phosphate buffer (0.1M NaPB, 2 mM Mg SO4, pH of 7.5). The amount of N. europaea protein was quantified using a Biuret assay.
To a buffer solution containing 10 μM of (NH4)2SO4 in a total reaction volume of 5 mL was added 0.25 mg/mL of the N. europaea containing cell suspension. The N. europaea protein content varied (e.g., 0.25 mg/mL, 0.3 mg/mL or 0.5 mg/mL total protein). Measurements of O2 present in the reaction medium were taken immediately after the addition of the cell suspension to the buffer solution for and were taken continuously over a certain time period.
Test compounds and formulations included 4 μM thiram, 100 μM nitrapyrin, 100 μM of formulation 2, 100 μM of formulation 3, 100 μM of formulation 4, 100 μM of formulation 2 plus 4 μM thiram, 100 μM of formulation 3 plus 4 μM thiram; and 100 μM of formulation 4 plus 4 μM, and thiram, untreated N. europaea assay served as the control.
Results are typically plotted as a function of measured oxygen (i.e., the amount of dissolved oxygen) in solution over time to generate a inhibition curve (FIG. 11). Measurements of the area under the inhibition curve can provide a bar chart showing the oxygen consumption of N. europaea of the entire testing period.

Like-named read-outs stand apart in the source and are kept apart here.

With `CN(C)C(=S)SSC(=S)N(C)C` [Thiram], the inhibition at 4 µM in the assay with Nitrosomonas europaea (0.5 h, 30 min after (NH4)2SO4, formulation 100 μM) is 77.7 ± 1%; with Nitrosomonas europaea (1 h, 60 min after (NH4)2SO4, formulation 100 μM) it was 77.3 ± 1.2%; in the assay with N. europaea (Nitrosomonas europaea, read-out: inhibition of oxygen consumption by N. europaea), 20%.

On to `Clc1cccc(C(Cl)(Cl)Cl)n1` [nitrapyrin, 2-chloro-6-(trichloromethyl)-pyridine], for which the “inhibition of oxygen consumption by N. europaea” value in the assay with N. europaea is given as “did not inhibit”.

As a reminder, the inhibition is the relative decrease from the control value, in per cent.
